Experimental data: paper PMC8196580, “Identification of Kaurane-Type Diterpenes as Inhibitors of Leishmania Pteridine Reductase I” (Molecules, 2021); call rule not given here
Where two headings read alike, the source gives them in different places. One block for each compound: values may come before it.

Tests used:
LmPTR1 = target: T1, LmPTR1 (Leishmania major, UniProt Q01782); test: LmPTR1 enzyme inhibition assay (spectrophotometric, NADPH oxidation at 340 nm); format: biochemical; settings: for IC50: NADPH 250 µM, pH 6.0, 30 °C, 0.1–128 µM
T1 construct: made in house
T1 sequence (Q01782 1-288): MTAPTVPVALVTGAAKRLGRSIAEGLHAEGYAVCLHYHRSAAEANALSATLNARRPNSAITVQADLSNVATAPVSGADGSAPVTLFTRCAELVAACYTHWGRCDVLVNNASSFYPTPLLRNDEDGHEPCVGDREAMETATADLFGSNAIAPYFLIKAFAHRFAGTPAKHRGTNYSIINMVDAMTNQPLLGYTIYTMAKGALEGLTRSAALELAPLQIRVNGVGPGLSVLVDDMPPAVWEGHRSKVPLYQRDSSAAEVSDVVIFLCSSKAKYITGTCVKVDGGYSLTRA
Procedure: The selected synthetic diterpene esters 135, 301, 302, 301a, and 302a were tested in vitro to experimentally determine their abilities to inhibit the enzymatic activity of LmPTR1 as an extension of the results provided by the in silico screening. […] The IC50 was then calculated for the tested diterpenes, and these values were used to calculate the apparent inhibitory constant (Ki^app) (Table 3) using the Cheng–Prusoff equation, assuming reversible competitive inhibition and 1:1 stoichiometry. PMA, a known PTR1 inhibitor, was used as a positive control. […] Therefore, a reasonable inference based on this small set of compounds is that the presence of a p-hydroxyl group at the phenylpropanoid moiety might favor inhibitory activity, whereas a 9β-hydroxyl group at the diterpene moiety has a negative influence on LmPTR1 inhibition.
Recombinant LmPTR1 enzyme was obtained, purified, and kinetically characterized, as reported previously. The in vitro assessment of selected diterpenes (i.e., 135, 301, 302, 301a, and 302a) for LmPTR1 inhibitory activity was performed through the spectrophotometric monitoring of the enzymatic activity under balanced conditions: LmPTR1 (30 µg), 7,8-dihydro-L-biopterin (DHB, 20 µM), sodium citrate buffer (20 mM, pH 6.0), 30 °C, and a final assay volume of 600 µL. Each reaction was started by the addition of 250 µM NADPH. Absorbance was monitored at 340 nm (i.e., oxidation of NADPH to NADP+) for 240 s, and the resulting profile was used to measure the initial reaction rate (IRR) through the respective slope by linear regression. All recordings were performed in triplicate. PMA was used as the positive control. The resulting IRR values were used to calculate the % inhibition, as 100 − (Ri/Rc × 100), where Ri is the IRR in the presence of the inhibitor and Rc is the IRR in the absence of inhibitors (1% DMSO v/v final concentration). The % inhibition for at least five concentrations (range: 0.1–128 µM) for each test compound (diterpenes and PMA) were calculated, and concentration-response curves (% inhibition vs. Log[inhibitor]) were obtained by non-linear regression to determine the IC50 using GraphPad Prism 5.0 (GraphPad, San Diego, CA, USA). Finally, Ki^app values were calculated using the Cheng–Prusoff equation for competitive inhibition, assuming a 1:1 stoichiometry and that the inhibitor-binding reactions are reversible: Ki^app = IC50/(1 + [S]/Km), where [S] is the substrate (DHB) concentration and Km is the Michaelis constant. The substrate Km was calculated during the kinetic characterization of purified, recombinant LmPTR1.

Leishmania donovani = tested on: Leishmania donovani; set-up: method as in earlier work; settings: in vitro, ref 27 (Nogueira et al.); cited from earlier work
L6 cells = tested on: L6 cells; set-up: method as in earlier work; settings: in comparison with L6 cells; ref 27 (Nogueira et al.); cited from earlier work
Plasmodium falciparum = tested on: Plasmodium falciparum; set-up: method as in earlier work; settings: in vitro, ref 27 (Nogueira et al.); cited from earlier work
L. major [1] = tested on: L. major; set-up: method as in ChEMBL; settings: ref ChEMBL, cited from earlier work
L. major [2] = test: ChEMBL dataset of pIC50 values against L. major used for the RF model (Table S1); format: cell-based, Leishmania major
[3] = recombinant LmPTR1, DHB 20 µM, read-out: IC50
[4] = ChemBL structures with pIC50 values used for Random forest model construction, L. major
[5] = Active/Inactive class assigned to the ChEMBL pIC50 value for Random forest model construction, ref ChEMBL
[6] = ChemBL structures with pIC50 values used for Random forest model construction (Table S1)
[7] = Active/Inactive class assigned to ChemBL structures for Random forest model construction (Table S1)

Ki (LmPTR1; read-out: Ki^app): 2.1 µM
IC50 (LmPTR1; [3]): 9.6 µM
SMILES: C=C1C[C@@]23CCC4[C@](C)(C(=O)O)[C@H](OC(=O)/C=C/c5ccccc5)CC[C@@]4(C)[C@@H]2CC[C@@H]1C3 (stereo partly drawn) [compound 302, 3α-cinnamoyloxy-ent-kaur-16-en-19-oic acid]

improvement of inhibitory activity versus 302 (LmPTR1; 3α-p-coumaroyloxy instead of 3α-cinnamoyloxy): approximately 60%
Ki (LmPTR1; read-out: Ki^app): 1.33 µM
IC50 (LmPTR1; [3]): 6.1 µM
SMILES: C=C1CC23CCC4C(C)(CCC(OC(=O)C=Cc5ccc(O)cc5)C4(C)C(=O)O)C2CCC1C3 (stereo not drawn) [302a, 3α-p-coumaroyloxy-ent-kaur-16-en-19-oic acid]

Ki (LmPTR1; read-out: Ki^app): 4.64 µM
IC50 (LmPTR1; [3]): 21.2 µM
SMILES: C=C1C[C@@]23CCC4[C@](C)(C(=O)O)[C@H](OC(=O)/C=C/c5ccccc5)CC[C@@]4(C)[C@]2(O)CC[C@@H]1C3 (stereo partly drawn) [compound 301, 3α-Cinnamoyloxy-9β-hydroxy-ent-kaur-16-en-19-oic Acid]

Ki (LmPTR1; read-out: Ki^app): 5.08 µM
IC50 (LmPTR1; [3]): 23.2 µM
SMILES: C=C1CC23CCC4C(C)(C(=O)O)C(OC(=O)C=Cc5ccc(O)cc5)CCC4(C)C2(O)CCC1C3 (stereo not drawn) [301a, 3α-p-coumaroyloxy-9β-hydroxy-ent-kaur-16-en-19-oic Acid]

SMILES: C=C1C[C@@]23CC[C@@H]4[C@](C)(CO)[C@H](O)CC[C@@]4(C)[C@@H]2CC[C@@H]1C3 (single isomer, unassigned; ent-3) [ent-3-α-hydroxy-kaur-16-en-18-ol]
IC50 (Leishmania donovani): 2.5 µM
Selectivity index, SI (L6 cells): > 10
IC50 (Plasmodium falciparum): 3.5 µM

Ki (LmPTR1; read-out: Ki^app): 1.88 µM
IC50 (LmPTR1; [3]): 8.6 µM
SMILES: C=C1C[C@@]23CC[C@@H]4[C@](C)(C(=O)O[C@H]5C=C(C)[C@@H](O)C[C@@H]5C(C)C)CCC[C@@]4(C)C2CC[C@@H]1C3 (stereo partly drawn) [compound 135, 2β-hydroxy-menth-6-en-5β-yl ent-kaurenoate]

SMILES: c1ccc(-c2nc3c(NCCN4CCOCC4)nccn3c2-c2ccncc2)cc1 [CHEMBL3634365]
pIC50 Value (L. major [1]; [4]): 4.63
Outcome (L. major [2]; [5]): Inactive

SMILES: COc1ccc(-c2ccccc2)c2c1C(C)=N[C@H](C)C2 [CHEMBL1275787]
pIC50 Value (L. major [1]; [4]): 4.00
Outcome (L. major [2]; [5]): Inactive

SMILES: O=C(CCl)N1c2cc(Cl)ccc2Oc2ccc(Cl)cc21 [CHEMBL3759123]
pIC50 Value (L. major [1]; [4]): 5.02
Outcome (L. major [2]; [5]): Active

SMILES: Clc1ccc(-c2nc3ccccc3[nH]2)cc1 [CHEMBL473163]
pIC50 Value (L. major [1]; [6]): 5.50
Outcome (L. major [2]; [7]): Active

SMILES: COc1cc(/C=N/NC(N)=S)ccc1OCc1cn(CC(=O)c2ccc(F)cc2)nn1 [CHEMBL4170543]
pIC50 Value (L. major [1]; [4]): 5.16
Outcome (L. major [2]; [5]): Active

SMILES: C/C(C=O)=C\CCC(C)(O)/C=C\c1cc(O)ccc1O (stereo not shown) [CHEMBL255316]
pIC50 Value (L. major [1]; [4]): 4.04
Outcome (L. major [2]; [5]): Inactive

SMILES: CN1CCN(c2nnc(-c3ccc([N+](=O)[O-])s3)s2)CC1 [CHEMBL371217]
pIC50 Value (L. major [1]; [4]): 3.99
Outcome (L. major [2]; [5]): Inactive

SMILES: CCNC(=N)c1ccc(N2CCN(c3nnc(-c4ccc([N+](=O)[O-])o4)s3)CC2)cc1.Cl [CHEMBL1783202]
pIC50 Value (L. major [1]; [4]): 4.48
Outcome (L. major [2]; [5]): Inactive

SMILES: Nc1ccc(Nc2c3ccccc3nc3ccccc23)cc1 [CHEMBL289352]
pIC50 Value (L. major [1]; [6]): 5.68
Outcome (L. major [2]; [7]): Active

SMILES: CCCC/C=C/C=C/c1nc2cccc(OC)c2n2cccc12 [CHEMBL3260217]
pIC50 Value (L. major [1]; [4]): 5.24
Outcome (L. major [2]; [5]): Active

SMILES: c1ccc(-c2nc3ccccn3c2-c2cncnc2)cc1 [CHEMBL2151871]
pIC50 Value (L. major [1]; [4]): 4.00
Outcome (L. major [2]; [5]): Inactive

SMILES: O=C(O)c1ccc(-c2c(-c3ccccc3)nc3ccccn23)cc1 [CHEMBL2151867]
pIC50 Value (L. major [1]; [4]): 4.00
Outcome (L. major [2]; [5]): Inactive

SMILES: O=[N+]([O-])c1ccc(-c2nnc(NCc3cn(Cc4cccc(Cl)c4)nn3)s2)o1 [CHEMBL1951526]
pIC50 Value (L. major [1]; [4]): 3.97
Outcome (L. major [2]; [5]): Inactive

SMILES: CC(=O)C1=C(C)N(C)C(=O)NC1c1ccccc1 (stereo not shown) [CHEMBL3785882]
pIC50 Value (L. major [1]; [6]): 5.59
Outcome (L. major [2]; [7]): Active

SMILES: CCc1nc(N)nc(N)c1-c1ccc(Cl)cc1 [PMA, pyrimethamine, reference compound]
Ki (LmPTR1): 0.24 µM
IC50 (LmPTR1; IC50, recombinant LmPTR1, DHB 20 µM): 1.11 µM

SMILES: CCN(CC)NC(=O)c1ccc(OCc2ccccc2)cc1 [CHEMBL3613383]
pIC50 Value (L. major [1]; [4]): 4.68
Outcome (L. major [2]; [5]): Inactive

SMILES: COc1ccccc1NC(=O)CCC(=O)O [CHEMBL1605594]
pIC50 Value (L. major [1]; [6]): 7.81
Outcome (L. major [2]; [7]): Active

SMILES: Cc1ccccc1/N=C/c1cn(C)c2ccccc12 [CHEMBL2071558]
pIC50 Value (L. major [1]; [6]): 5.64
Outcome (L. major [2]; [7]): Active

SMILES: Cc1ccc2cc(C3CC(c4ccc(Cl)s4)=NN3)c(Cl)nc2c1 (stereo not shown) [CHEMBL2236141]
pIC50 Value (L. major [1]; [6]): 5.64
Outcome (L. major [2]; [7]): Active
